The structures appear in SMILES notation. Where two headings read alike, the source gives them in different places.

Experimental findings from PMC4446823, “Inhibition of RORγt activity and Th17 differentiation by a set of novel compounds” (BMC Immunology, 2015) are described below.

For series [1], the target named is T1, RORγt (Homo sapiens, UniProt P51449).
T1 construct: expressed in transfected cells
T1 sequence (P51449 269-508 limits assumed): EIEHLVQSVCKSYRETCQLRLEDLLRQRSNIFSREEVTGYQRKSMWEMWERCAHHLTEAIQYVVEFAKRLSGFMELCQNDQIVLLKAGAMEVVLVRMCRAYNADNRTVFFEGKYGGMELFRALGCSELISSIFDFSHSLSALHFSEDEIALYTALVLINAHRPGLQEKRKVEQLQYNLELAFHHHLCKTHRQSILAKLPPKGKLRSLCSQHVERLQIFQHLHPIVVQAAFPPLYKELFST
Briefly: Gal4/RORγt-LBD luciferase reporter assay in RORγt-LBD+ Jurkat stable cells. In kind it is cell-based. As to conditions: RORγt-LBD+ Jurkat cells, 6 h. The source says:
(§1) The pGL4.31 (luc2P/GAL4UAS/Hygro) and pBIND vectors were obtained from Promega (Madison, WI, USA). An IRES-GFP sequence was first cloned into the pBIND vector. Human RORγt was then amplified using cDNA isolated from human peripheral blood mononuclear cells (PBMCs) (provided by Dr. Hui Zhang) and inserted into the reconstructed pBIND-IRES-GFP vector to generate a Gal4–RORγt-LBD-IRES-GFP fusion sequence. The primers that used to construct the pBIND- Gal4–RORγt-LBD-IRES-GFP plasmid are as follows: RORγt-LBD forward 5′- […]-3′,reverse5′- […] -3′.
A similar procedure was used to generate the Jurkat RORγt -LBD reporter cell line. For this, Jurkat cells (1 × 10^7) were transfected with pGL4.31 reporter plasmid (20 μg) by electroporation (Lonza, Basel, Switzerland) according to the manufacturer’s instructions. The transfected Jurkat cells were selected in RPMI 1640 medium containing 200 μg/mL hygromycin B prior to a second transfection. Stable Jurkat cotransfectants were then sorted based on GFP expression, and yielded a GFP^+ purity >96 % as determined by flow cytometry.
RORγt-LBD^+-Jurkat (2 × 10^4) stable cells were seeded into 96-well round-bottom plates (Corning Inc, Corning, NY) and incubated in RPMI1640 complete medium overnight. Then, Screened compounds (Enamine, Monmouth Junction, NJ) were added to the wells using a Tecan Freedom EVO 150 (Tecan, Männedorf, Switzerland) to a final concentration of 50 μM. Cells were treated with DMSO or 100 nM PMA (Sigma-Aldrich, St. Louis, MO) only for use as negative and positive controls, respectively. After a 6 h treatment period, cells were lysed and assayed for luciferase activity (Promega) following the manufacturer’s instructions.
RORγt-LBD^+-Jurkat cells were seeded into 96-well round-bottom plates (2 × 10^4) and cultured overnight prior to incubation with the screening compounds at 5-fold gradient final concentrations ranging from 5 μM to 8 nM. Cells were lysed 6 h later and assayed for luciferase activity (Promega) using the manufacturer’s instructions. Additionally, the results from the high-throughput screening at 50 μM concentration of candidates were also applied in the calculation of the EC50. The EC50 values were determined by plotting the logarithm of compound concentration versus relative luciferase activity to determine the half-maximal effective concentration (EC50).
In general terms: Reporter assays use an easily measured gene product as a stand-in for the process of interest.

The target of series [2] is T1, RORγt. Briefly: Gal4/RORγt-LBD luciferase reporter assay in RORγt-LBD+ 293 T stable cells. It counts as cell-based. As to conditions: RORγt-LBD+ 293 T cells, 5 μM, 6 h.
Excerpt: as §1
The pGL4.31 reporter plasmid (4 μg) was transfected into 293 T cells (1 × 10^6) with Lipofectamine™ 2000 (Invitrogen) according to manufacturer instructions. The transfected cells were then selected in a medium containing 100 μg/mL hygromycin B (Roche, San Francisco, CA, USA) for 3 weeks to obtain a cell population that expressed the pGL4.31 reporter gene. Then, the stable cells were transfected with pBIND-RORγt-LBD-IRES-GFP plasmid (4 μg). The cotransfectants were sorted by green fluorescent protein (GFP) expression, which yielded a RORγt-LBD^+ 293Tstable reporter cell line with >96 % purity as determined by flow cytometry.
RORγt-LBD^+-293 T (1x10^4) stable cells wereseeded into 96-well plates (Corning Inc., Corning, NY)and incubated in DMEM complete medium overnight. Then the candidates were added with a final concentration of 5 μM. […]

A short description of series [3]: Jurkat cell viability, MTT assay. In kind it is cell-based, human. The settings on record: human, wild-type Jurkat cells, highest concentration 5 μM. The method, then: (§2) Jurkat cell viability after culturing in the presence of the screened compounds was assessed by MTT assay. In brief, wild type Jurkat cells were seeded (2 × 10^4) and incubated with the compounds in 5-fold gradient dilutions. MTT (dimethylthiazolyl-2-5-diphenyltetrazolium bromide) dye solution (Sigma, St. Louis, MO, USA) was added 48 h later and incubated at 37 °C for 4 h, MTT was reduced by live cells into a colored formazan product. After centrifugation at 1500 rpm for 5 min, the supernatant was discarded and 100 μL DMSO was added to the plate, which was gently shaken for 10 min to dissolve the formazan product. Absorbance at 570 nm wavelength was recorded using Thermo Scientific Multiskan FC (Thermo Scientific, Waltham, MA, USA). Each treatment was repeated in quadruplicate. Cell viabilities were defined relative to control cells treated only with DMSO, with results used as evaluation of cytotoxicity of candidates. The half-maximal cytotoxic concentration (CC50) for each compound was calculated from the dose–response curves with the aid of GraphPad Prism software 5.0 (GraphPad Software, San Diego, CA).
(Tetrazolium assays rely on reduction of a dye to a coloured formazan, in cell work by metabolically active cells.)

Series [4] has as its system wild type Jurkat cells. Briefly: Jurkat cell viability, MTT assay. It counts as cell-based, human. The settings on record: 48 h; for reduction of Jurkat cell viability over vehicle control: 5 μM (highest concentration). The method, then:
as §2

For series [5], the system named is IL-17A secretion. Briefly: IL-17A secretion by ELISA in culture supernatant under Th17-polarizing conditions. The settings on record: mouse CD4+ T cells, compound 5 μM, 5 days. It counts as cell-based. The method, then:
(§3) CD4^+CD25^− T cells were isolated from spleens of 8–12-week-old C57BL/6 mice as follows: single-cell suspensions were made by crushing the spleen through a cell strainer, and red blood cells (RBCs) were lysed with RBC lysis buffer. CD4^+ T cells were then purified using magnetic-activated cell sorting (MACS) column a CD4^+ T cell isolation kit (Miltenyi Biotec, Bergisch Gladbach, Germany) according to the manufacturer’s protocol.
(§4) Spleen cells (3 × 10^6) were stimulated in 6-well plates with 5 μg/mL plate-bound anti-CD3e antibody (eBioscience, San Diego, USA) and 2 μg/mL soluble anti-CD28 antibody (eBioscience) for 24 h. The activated cells were then collected, and seeded into 96-well round-bottom plates (2 × 10^4) for Th17 differentiation in the presence of 5 ng/mL recombinant human TGF-β (R&D Systems, Minneapolis, MN), 30 ng/mL recombinant mouse IL-6 (R&D Systems, Minneapolis, MN), and either the screening compounds (5 μM final concentration) or DMSO as control. After culturing for 2 days, fresh medium (100 uL/well) containing recombinant human TGF-β, recombinant mouse IL-6, and the previously-introduced screening compounds was added to the cells, which were then cultured for additional 2 days.
The concentration of IL-17A in the splenocyte supernatant after 5 days in culture was determined using an ELISA kit (CUSABIO, Wuhan, China) according to the manufacturer’s protocol.
In general terms: ELISA stands for enzyme-linked immunosorbent assay.

For series [6], the system named is mouse Th17 cell differentiation. Kind of series: In vitro mouse Th17 cell differentiation, mRNA by quantitative PCR. In kind it is cell-based. As to conditions: 5 μM, Th17-polarizing conditions (TGF-β, IL-6), 4 days, normalized to GAPDH. The method, then: as §3, §4
Total RNA was extracted from splenocytes with TRIzol (Invitrogen) after 5 days in culture. Approximately 1 μg total RNA was added to a 20 μL reaction volume for reverse transcription using the GoScript™ Reverse Transcription System (Promega) according to the manufacturer’s instructions. Synthesized cDNA was then used for real-time quantitative PCR using GoTaq® qPCR Master Mix (Promega). Gene expression of mouse Rorc, Il17a, and Il17f was normalized to that of Gapdh. The following primer sequences were used: Rorc forward 5′-TGTAATGTGG CCTACTCCTGCA-3′, reverse 5′-[…]-3′; Il17a forward 5′- […]-3′, reverse 5′-[…] -3′; Il17f forward 5′-[…]-3′, reverse 5′- […]-3′; Gapdh forward 5′-[…]-3′, reverse 5′-[…]-3′.

[7] abbreviates: read-out: EC50, inhibition of RORγt activity, Gal4/RORγt-reporter system.

For `CC1Cc2ccccc2N1S(=O)(=O)c1ccc(Cl)c(C(F)(F)F)c1` (centres unmarked) [744267-30-9, 1-[4-chloro-3-(trifluoromethyl)phenyl] sulfonyl-2-methyl-2,3-dihydroindole, reference compound], the EC50 in series [1] (5 μM to 8 nM, read-out: EC50, relative luciferase activity, Gal4-reporter system) was found to be 0.723 µM. In addition, in series [2], the “reduction of RORγt activity in 293 T cells” value is recorded as “strongly inhibited”.

Broadly, the CC50 is the concentration giving 50% cytotoxicity. Regarding `Cc1cc(NC(=O)NC(c2ccc(C(C)C)cc2)c2cccs2)no1` (centres unmarked) [compound 29, 3-(5-methyl-1,2-oxazol-3-yl) - 1-[(4-propan-2-ylphenyl) - thiophen-2-ylmethyl] urea], the EC50 in series [1] (setting [7]) was found to be 2.1 µM. In series [3], this compound returned a cytotoxic concentration (CC50) at 48 h greater than 5 µM. Moreover, the “reduction of Jurkat cell viability over vehicle control” value (“reduction of Jurkat cell viability” for short) in series [4] is on record as “less than 25%”. Moreover, in series [5], the “IL-17A concentration in culture supernatant” value was 209 pg/mL and the “reduction of IL-17A concentration compared with vehicle-treated control cells” value (shortened to “reduction of IL-17A concentration”) is recorded as 44%. In series [6], the “Il17a gene expression compared with vehicle-treated control group” value is “significantly reduce” and the “Il17f gene expression compared with vehicle-treated control group” value was “significantly reduce”.

In the case of `O=C(c1ccc(C2CCCCC2)cc1)N(CC1CCCO1)C1CCS(=O)(=O)C1` (centres unmarked) [compound 31, 4-cyclohexyl-N-(1,1-dioxothiolan-3-yl) - N-(oxolan-2-ylmethyl) benzamide], the EC50 in series [1] (setting [7]) was 17.5 µM. Further, the “reduction of Jurkat cell viability” value in series [4] is on record as “less than 25%”. In series [5], the “IL-17A concentration in culture supernatant” value was determined as 226 pg/mL and the “reduction of IL-17A concentration” value was 39%. In addition, in series [6], the “Il17a gene expression compared with vehicle-treated control group” value is on record as “significantly reduce” and the “Il17f gene expression compared with vehicle-treated control group” value is listed as “significantly reduce”.

In the case of `CCc1nnc(NC(=O)C2(S(=O)(=O)c3ccc(C)c(C)c3)CCCC2)s1` [compound 35, 1-(3,4-dimethylphenyl) sulfonyl-N-(5-ethyl-1,3,4-thiadiazol-2-yl) cyclopentane-1-carboxamide], the EC50 in series [1] (setting [7]) is 28 µM. Further, the “reduction of Jurkat cell viability” value in series [4] is given as “less than 25%”. Also, in series [6], the “Il17a gene expression compared with vehicle-treated control group” value is “significantly reduce” and the “Il17f gene expression compared with vehicle-treated control group” value was “significantly reduce”.

Take `CCCc1cc(C(=O)OCC(=O)NC(=O)NC2CCCC2)sc1C` [compound 36, 2- Thiophenecarboxylic acid, 5-methyl-4-propyl-,2-[[(cyclopentylamino)carbonyl]amino] - 2-oxoethyl ester]: in series [1] (setting [7]), the EC50 stood at 4.2 µM. Besides, in series [4], the “reduction of Jurkat cell viability” value was “about 50%”. The same compound registered a CC50 in series [4] (wild-type Jurkat cells, highest concentration 5 μM) greater than 5 µM. In addition, in series [5], the “IL-17A concentration in culture supernatant” value was determined as 189 pg/mL and the “reduction of IL-17A concentration” value stood at 49%. In addition, in series [6], the “Il17a gene expression compared with vehicle-treated control group” value is “significantly reduce” and the “Il17f gene expression compared with vehicle-treated control group” value was “significantly reduce”.
